Where only a bound is given, the exact number is not on record here.

The assay deals with Xanthine dehydrogenase/oxidase (Homo sapiens, UniProt P47989). As to the kind of experiment: Inhibitory activity against Xanthine Oxidase.
Sequence of Xanthine dehydrogenase/oxidase (P47989 whole entry): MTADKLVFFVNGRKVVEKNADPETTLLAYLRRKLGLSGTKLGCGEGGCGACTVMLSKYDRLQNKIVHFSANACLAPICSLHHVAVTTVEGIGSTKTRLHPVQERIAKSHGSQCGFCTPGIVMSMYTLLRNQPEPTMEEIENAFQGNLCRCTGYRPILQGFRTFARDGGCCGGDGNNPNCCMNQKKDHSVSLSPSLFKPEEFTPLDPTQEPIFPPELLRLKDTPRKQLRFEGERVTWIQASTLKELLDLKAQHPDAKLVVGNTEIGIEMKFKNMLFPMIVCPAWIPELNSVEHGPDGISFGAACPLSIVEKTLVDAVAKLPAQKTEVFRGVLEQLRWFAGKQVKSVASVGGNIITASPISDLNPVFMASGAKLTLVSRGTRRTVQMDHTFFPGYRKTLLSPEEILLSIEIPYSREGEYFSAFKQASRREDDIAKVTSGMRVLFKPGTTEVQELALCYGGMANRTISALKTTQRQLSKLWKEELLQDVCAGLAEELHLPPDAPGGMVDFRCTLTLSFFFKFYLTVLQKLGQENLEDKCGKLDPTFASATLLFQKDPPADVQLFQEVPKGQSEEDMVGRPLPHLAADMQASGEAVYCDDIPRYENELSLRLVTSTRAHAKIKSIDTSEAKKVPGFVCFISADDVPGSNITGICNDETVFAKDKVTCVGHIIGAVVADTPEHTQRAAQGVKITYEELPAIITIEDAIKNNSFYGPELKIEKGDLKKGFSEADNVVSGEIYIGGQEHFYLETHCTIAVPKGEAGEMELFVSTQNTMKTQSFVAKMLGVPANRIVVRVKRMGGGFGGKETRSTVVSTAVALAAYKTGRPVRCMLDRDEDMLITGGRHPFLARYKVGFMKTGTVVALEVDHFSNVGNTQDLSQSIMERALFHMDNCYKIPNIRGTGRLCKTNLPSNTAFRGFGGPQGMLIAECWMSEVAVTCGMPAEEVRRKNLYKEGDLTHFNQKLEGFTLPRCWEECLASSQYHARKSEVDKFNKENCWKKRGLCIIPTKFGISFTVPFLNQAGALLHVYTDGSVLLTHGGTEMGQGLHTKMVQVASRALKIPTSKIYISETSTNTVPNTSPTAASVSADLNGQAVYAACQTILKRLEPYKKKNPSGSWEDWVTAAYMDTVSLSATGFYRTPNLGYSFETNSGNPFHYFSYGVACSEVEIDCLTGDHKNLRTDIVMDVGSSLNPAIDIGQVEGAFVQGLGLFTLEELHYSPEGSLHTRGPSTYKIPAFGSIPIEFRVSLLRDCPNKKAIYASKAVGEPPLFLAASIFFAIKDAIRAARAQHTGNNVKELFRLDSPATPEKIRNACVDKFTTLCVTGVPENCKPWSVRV

In the case of `CC1CSc2nc3[nH]c(=O)[nH]c3c(=O)n2C1` (configuration not stated) [2-Hydroxy-7-methyl-7,8-dihydro-3H,6H-5-thia-1,3,4,8a-tetraaza-cyclopenta[b]naphthalen-9-one], the Ki was above 100 µM.
To `CC1CSc2nc3[nH]c(=S)[nH]c3c(=O)n2C1` (configuration not stated) [2-Mercapto-7-methyl-7,8-dihydro-3H,6H-5-thia-1,3,4,8a-tetraaza-cyclopenta[b]naphthalen-9-one] belongs above 100 µM.

As usually defined, the Ki is a dissociation constant, usually derived from enzyme kinetics or from competition with a known ligand.

For the origin of these results see BindingDB's records for doi:10.1021/jm950876u (Universit&#224, 1996).
